Assay results as given in patent US20190111154A1, “TREATMENT OF NEUROPATHY WITH DNA CONSTRUCT EXPRESSING HGF ISOFORMS WITH REDUCED INTERFERENCE FROM GABAPENTINOIDS” (ViroMed Co., Ltd., priority 2017, published 2019).

Assays:
[1] = cited from earlier work
[2] = Von Frey filament test in CCI mice, gabapentin at different time points, Example 4; type: in vivo
Protocol: The effects of gabepentinoid administration at different time points relative to VM202 administration were tested in chronic constriction injury (CCI) mice.
After CCI surgery, the development of mechanical allodynia was assessed using a Von Frey's filament test once a week, and the level of pain reduction fold was calculated based on the mechanical frequency evaluation. Briefly, animals were placed individually in a cylinder on top of a metal mesh floor for adaptation. To examine the frequency of mechanical sensitivity, mice were assessed by stimulating the hind paw using constant thickness of the filament (0.16 g).
To further understand the delay required to prevent the interference, in a further experiment, CCI mice injected with VM202 were treated with gabapentin after delays for various periods ranging from 0 to 14 days. CCI mice were injected with VM202 or pCK on day 0. The CCI mice were treated with no gabapentin (CONT1, CONT2) or additionally treated with gabapentin starting on day 0 (on the day of VM202 injection, GP1) or day 3 (GP2), day 7 (GP3) or day 10 (GP4) after VM202 injection.
Two weeks after CCI surgery and VM202 or pCK injection, the development of mechanical allodynia was assessed using a Von Frey's filament test, and the level of pain reduction fold was calculated based on the mechanical frequency evaluation for each animal.

[3] = Nerve pinch test in nerve crush mouse model; type: in vivo, mice; conditions: day 7
Protocol: FIG. 5 illustrates the experimental procedure for testing gabapentin effects on VM202-mediated nerve regeneration in a nerve crush mouse model. Nerve crush was induced and VM202 administered to 9-week old male C57BL/6 mice on day 1, gabapentin was injected daily from day 2 to day 6, and nerve pinch test was conducted on day 7.
Effects of gabapentinoids on VM202-mediated nerve regeneration were tested in a nerve crush animal model. The protocol is schematized in FIG. 5. Specifically, nerve crush was introduced to 9-week-old C57BL/6 mice by giving brief pressure to their sciatic nerve. On the same day (day 1), the mice were injected with 200 μg of VM202 to the cranial thigh muscles right after the nerve crush. From the next day (day 2), 100 mg/kg gabapentin was administered daily.
On day 7, a nerve pinch test was performed to quantify functional recovery of the injured nerve. For the nerve pinch test, light anesthesia was induced and sciatic nerve was exposed. The injured nerve was pinched from its distal to proximal direction until a reflex response was observed. The distance was then measured between the injury site and the foremost site that produced the response. The distance measured by this method represents the length of regenerated nerves, which is provided on the y-axis in FIG. 6.

c-Jun = experiment: Western blot of c-Jun in dorsal root ganglion (DRG) cells of nerve crush mice; type: in vivo, mouse
Text: Expressions of c-Jun (top) and GAPDH (bottom) were detected by antibodies specific to each protein. FIG. 7B provides relative levels of c-Jun expression in each sample, calculated by measuring band intensity of c-Jun and comparing the intensity with the band intensity of GAPDH.
c-Jun is well established to be a key factor involved in nerve regeneration, and has been used as a marker for that process. Expression of c-Jun protein prepared from dorsal root ganglion (DRG) cells obtained from a sham mouse (“Sham”) or from a nerve crush mouse (“Crush”) was measured by Western blot assay, using an antibody against c-Jun. […] VM202 treatment further increased c-Jun expression level by 1.3-fold (compare lanes 2 and 3 of FIG. 7A), but such induction was not observed when mice were exposed to gabapentin (compare lanes 5 and 6 of FIG. 7A). The western blot assay results were quantified based on the band intensities and presented in FIG. 7B for their analysis and comparison.

[4] = Von Frey filament test in chronic constriction injury (CCI) mice, Example 1; type: in vivo; conditions: for paw withdrawal frequency: day 14-16
Protocol: FIG. 2 illustrates the experimental procedure for testing effects of gabapentin on VM202-mediated pain reduction using chronic constriction injury (CCI) mice. Surgical procedure on sciatic nerve (CCI or sham) was performed and a plasmid (pCK or VM202) was administered to 5-week-old male mice on day 0, gabapentin or PBS was injected daily to the mice from day 1 to day 15, and their pain levels were measured by von Frey filament test starting on day 14 through 16.
In order to explore the mechanisms behind the gabapentinoid interference with VM202 efficacy, we tested effects of gabapentin on VM202-mediated pain reduction in chronic constriction injury (CCI) mice as presented in FIG. 2. CCI is an animal model widely used for studying neuropathic pain. Specifically, chronic constriction injury (CCI) was introduced by applying loosely constrictive ligatures to the sciatic nerve of 5 week-old male mice. The CCI mice were divided into three groups—in the first group, 200 μg of pCK vector was administered into the cranial thigh muscles as a negative control for VM202 administration (pCK is the vector used in VM202, but lacks the HGF vector payload), in the second group, 200 μg of VM202 was administered into the cranial thigh muscles, and in the third group, no DNA construct was administered. Animals in each of the first and the second group were further divided into two subgroups, with the first subgroup injected daily with 100 mg/kg of gabapentin and the second subgroup injected daily with PBS as a negative control for gabapentin administration, via intraperitoneal cavity for two weeks. The sham group without CCI was also maintained and daily injected with PBS. From day 14 to day 16, Von Frey filament test was performed to assess the level of neuropathic pain (mechanical allodynia).

[5] = CCI mice given pCK and daily 100 mg/kg gabapentin i.p.

VM202: plasmid DNA, HGF-X7 cloned into the pCK vector (SEQ ID NO: 11), expresses flHGF and dHGF; KCCM-10361
pain in patients with diabetic peripheral neuropathy ([1]; injections into the calf muscle, two days of treatment spaced two weeks apart): significantly reduce pain | reduction in pain from baseline, patients not on Lyrica and/or Neurontin versus total patient group ([1]; low dose of VM202 (total 16 mg), 3, 6, 9 months): larger reduction in pain | pain relief in patients not taking pregabalin or gabapentin versus patients taking a gabapentinoid ([1]; post hoc analysis of phase II data): more effective in relieving pain in patients not taking pregabalin or gabapentin | duration of symptomatic relief with improvement in quality of life ([1]; two days of treatment, spaced two weeks apart): 3 months | pain level versus CCI-pCK ([2]; CCI-VM202-Gaba1: gabapentin from day 0 to day 14): no effects | pain level from day 14 to 28, after gabapentin stopped ([2]; CCI-VM202-Gaba1: gabapentin from day 0 to day 14, none afterwards): continued to have high level of pains | pain relieving effects ([2]; CCI-VM202-Gaba2: gabapentin from day 15 to day 28): significant and maintained | pain level versus CCI-pCK ([2]; CCI-VM202: 200 μg/head VM202 day 0, no gabapentin): significantly reduced the pain level | pain reducing effect two weeks after CCI surgery ([2]; CONT2: no gabapentin): significant pain relief | pain reducing effect two weeks after CCI surgery ([2]; GP1: 100 mg/kg gabapentin started day 0): did not have significant pain reducing effects | pain reducing effect two weeks after CCI surgery ([2]; GP2: 100 mg/kg gabapentin started day 3): did not have significant pain reducing effects | pain reducing effect two weeks after CCI surgery ([2]; GP3: 100 mg/kg gabapentin started day 7): did not have significant pain reducing effects | pain reducing effect two weeks after CCI surgery ([2]; GP4: 100 mg/kg gabapentin started day 10): significant pain relief | length of regenerated nerve ([3]; 200 μg VM202, daily 100 mg/kg gabapentin): 1.95±0.3 mm | length of regenerated nerve ([3]; 200 μg VM202, daily PBS): about 4±0.2 mm | length of regenerated nerve, fold versus pCK control ([3]; daily PBS): approximately 2.7 fold | increase of nerve regeneration, fold versus pCK control group ([3]; in the presence of daily gabapentin): 2.3 fold | increase of c-Jun expression level versus nerve crush mice given pCK (c-Jun; daily PBS (lanes 2 and 3)): 1.3 fold | induction of c-Jun expression versus nerve crush mice given pCK (c-Jun; mice exposed to gabapentin (lanes 5 and 6)): not observed | pain level (paw withdrawal frequency) ([4]; CCI mice, 200 μg VM202, no gabapentin, throughout the experimental period): significantly lower pain levels | paw withdrawal frequency ([4]; CCI mice, 200 μg VM202 i.m. plus daily 100 mg/kg gabapentin i.p.): 46.1% | paw withdrawal frequency ([4]; CCI mice, 200 μg VM202 i.m., no gabapentin): 30.56% | time over which pain level increased close to the pCK-PBS level after gabapentin injection ([4]; VM202-treated CCI mice, daily 100 mg/kg gabapentin): about 10 hours | compromise of the pain reduction effect of VM202 by gabapentin ([4]; daily 100 mg/kg gabapentin i.p.): more than 50%

NCC1(CC(=O)O)CCCCC1 [gabapentin]
duration of pain relieving effects [4, 5]: about 6 hours | pain level (paw withdrawal frequency) [4, 5]: decreases in pain levels immediately after the gabapentin administration
